In the CheMixHub ionic liquid set:

Test: xn = mol fraction of the nth substance listed

CC(=O)[O-].CC[NH+](CC)CC + O
298.15 K, 101 kPa
Conditions | viscosity [mPa·s]
x1 = 0.0288 | 6.32
x1 = 0.042 | 8.12
x1 = 0.0638 | 10.7
x1 = 0.0847 | 13.35
x1 = 0.1016 | 14.91
x1 = 0.1457 | 18.6
x1 = 0.2125 | 23.4
x1 = 0.2349 | 24.4
x1 = 0.2904 | 26.5
x1 = 0.3254 | 27.4
x1 = 0.367 | 27.8
x1 = 0.4174 | 28.2
x1 = 0.5162 | 27.6
x1 = 0.5579 | 26.8
x1 = 0.6055 | 26.1
x1 = 0.6604 | 25.3
x1 = 0.7243 | 24.2
x1 = 0.7996 | 22.9
x1 = 0.8899 | 22.7
x1 = 1 | 24.1

CCCCn1cc[n+](C)c1C.O=S(=O)([N-]S(=O)(=O)C(F)(F)F)C(F)(F)F + O=C1CCCO1
100 kPa, frequency 0.005 MHz
Conditions | electrical conductivity [S/m]
293.15 K, x2 = 0.1014 | 0.207
293.15 K, x2 = 0.3 | 0.302
293.15 K, x2 = 0.8001 | 1.12
298.15 K, x2 = 0.8996 | 1.3
303.15 K, x2 = 0.3 | 0.451
303.15 K, x2 = 0.9468 | 1.01
308.15 K, x2 = 0.3 | 0.538
308.15 K, x2 = 0.7012 | 1.28
313.15 K, x2 = 0.1014 | 0.479
313.15 K, x2 = 0.7012 | 1.43
318.15 K, x2 = 0 | 0.51
318.15 K, x2 = 0.7012 | 1.58
323.15 K, x2 = 0 | 0.599

CCCCCCCC[N+]1(C)CCCC1.O=S(=O)([N-]S(=O)(=O)C(F)(F)F)C(F)(F)F + CCCCOC(C)=O
298.15 K, 100 kPa
Conditions | electrical conductivity [S/m] | viscosity [mPa·s]
x2 = 0.2414 | 0.145 | –
x2 = 0.2589 | – | 51.3
x2 = 0.6824 | 0.353 | –
x2 = 0.7923 | 0.355 | –
x2 = 0.8427 | 0.326 | –

O=S(=O)([N-]S(=O)(=O)C(F)(F)F)C(F)(F)F.[Li+] + OCCO
Conditions | electrical conductivity [S/m]
333 K, 100 kPa, frequency 1 MHz, x1 = 0.5 | 0.8

Conditions | viscosity [mPa·s]
333 K, 100 kPa, x1 = 0.5 | 21.68

CCCCCCCCCC[N+](C)(C)C.[Br-] + O
298.15 K, 101 kPa
Conditions | viscosity [mPa·s]
x1 = 9.063e-05 | 0.9026
x1 = 0.0001809 | 0.9052
x1 = 0.0002674 | 0.9071
x1 = 0.0003644 | 0.9089
x1 = 0.0004939 | 0.9162
x1 = 0.000699 | 0.9255
x1 = 0.0009049 | 0.9331
x1 = 0.00108 | 0.939
x1 = 0.001236 | 0.9459
x1 = 0.001415 | 0.9542
x1 = 0.001504 | 0.9589
x1 = 0.001656 | 0.9675
x1 = 0.001835 | 0.9775

CS(=O)(=O)[O-].C[N+](C)(CCO)CCO + O
101 kPa
Conditions | viscosity [mPa·s]
298.15 K, x1 = 0.1991 | 14.87
303.15 K, x1 = 0.2989 | 29.9
303.15 K, x1 = 0.6984 | 333
313.15 K, x1 = 0.4797 | 62.4
313.15 K, x1 = 0.6984 | 186
318.15 K, x1 = 0.2989 | 17.3
318.15 K, x1 = 0.4797 | 50.1
318.15 K, x1 = 1 | 378
323.15 K, x1 = 0.1991 | 6.85
323.15 K, x1 = 0.4797 | 40.9
323.15 K, x1 = 0.6984 | 112.1
323.15 K, x1 = 1 | 282

O=S(=O)([N-]S(=O)(=O)C(F)(F)F)C(F)(F)F.[K+] + O=S(=O)([N-]S(=O)(=O)C(F)(F)F)C(F)(F)F.[Li+]
100 kPa, frequency 1 MHz, x2 = 0.43
Conditions | electrical conductivity [S/m]
442.3 K | 0.359
452.3 K | 0.479
462.7 K | 0.624
473.6 K | 0.794
483 K | 0.99
492.3 K | 1.19
502.3 K | 1.42
512.6 K | 1.66
523.4 K | 1.93
531.6 K | 2.25
543 K | 2.48
552.2 K | 2.77
561.6 K | 3.1
571.3 K | 3.53

100 kPa, x2 = 0.43
Conditions | viscosity [mPa·s]
442.5 K | 179
452.5 K | 127
463 K | 90
473.9 K | 63.7
483.1 K | 50.6
492.6 K | 39.1
502.5 K | 31.6
512.8 K | 26.4
523.6 K | 21.8
531.9 K | 18.4
543.5 K | 14.6
552.5 K | 13.6
561.8 K | 12.5

CCCCCC[n+]1ccn(C)c1.O=[N+]([O-])c1cn[n-]c1 + CCCCCCCC[P+](CC)(CC)CC.O=S(=O)([N-]S(=O)(=O)C(F)(F)F)C(F)(F)F
Conditions | viscosity [mPa·s]
288.15 K, 100 kPa, x2 = 0.1 | 770

CS(=O)(=O)[O-].C[N+](C)(CCO)CCO + CO
viscosity [mPa·s], 101 kPa
Conditions | x1 = 0.1 | x1 = 0.1996 | x1 = 0.3001 | x1 = 0.4004 | x1 = 0.5005 | x1 = 0.5976 | x1 = 0.7022 | x1 = 0.8012 | x1 = 0.9012 | x1 = 1
298.15 K | 2.03 | 5.81 | 14.8 | 34.4 | 74.1 | 164 | 316 | 566 | 940 | 1495
303.15 K | 1.85 | 5.12 | 12.57 | 28.1 | 58.3 | 125.1 | 231 | 402 | 656 | 1021
308.15 K | 1.69 | 4.55 | 10.99 | 23.3 | 46.7 | 86.6 | 175 | 296 | 469 | 716
313.15 K | 1.55 | 4.06 | 9.61 | 19.6 | 38 | 68.4 | 134.1 | 222 | 344 | 513
318.15 K | 1.431 | 3.64 | 8.35 | 16.6 | 31.3 | 54.9 | 105.2 | 170 | 258 | 378
323.15 K | 1.323 | 3.29 | 7.37 | 14.24 | 26.1 | 44.7 | 75.7 | 132.2 | 197 | 282

CCCC[n+]1ccn(C)c1.CS(=O)(=O)[O-] + CCCC[n+]1ccn(C)c1.[Cl-]
Conditions | viscosity [mPa·s]
353.15 K, 102 kPa, x1 = 0.2 | 98

CCCCCC[n+]1ccn(C)c1.O=[N+]([O-])c1cn[n-]c1 + CCCCCCCCCCCCCC[P+](CCCCCC)(CCCCCC)CCCCCC.O=S(=O)([N-]S(=O)(=O)C(F)(F)F)C(F)(F)F
Conditions | viscosity [mPa·s]
283.15 K, 100 kPa, x2 = 0.899 | 820

CCCCCCCCCC[n+]1ccn(C)c1.O=S(=O)([N-]S(=O)(=O)C(F)(F)C(F)(F)F)C(F)(F)C(F)(F)F + O
Conditions | electrical conductivity [S/m]
295.15 K, 101 kPa, x2 = 0.14 | 0.11
